According to article PMC5566973 (Frontiers in Pharmacology, 2017):

Legend:
[1] = system: ATP (adenosine triphosphate); assay: Bidirectional transport in MDCK cell monolayers with selective transporter inhibitors or substrates; format: in vitro ADME, canine; settings: dog, with NaN3 10 mM, + NaN3 10 mM (ATP)
Procedure: (§1) Caco-2, MDCK and MDCK-MRP2 cells were donated by Prof. Yan Xie and Yueming Ma from Shanghai University of Traditional Chinese Medicine. The cells were grown in culture dishes (Corning® Costar, Cambridge, MA, USA) using DMEM supplemented with 10% FBS, 1% NEAA and 1% penicillin-streptomycin solution. The cells were cultured in 5% CO2 and […] with 90% relative humidity at 37°C. The medium was replaced every other day during incubation. The cells were passaged every 3–4 days between 70 and 80% confluence at a 1:5 split ratio using 0.25% trypsin-EDTA. For the transport experiments, the cells from passages between 30 and 45 were seeded at 1 × 10^5 cells/cm^2 onto permeable polycarbonate inserts (0.45 μm pore size, seeding surface of 0.6 cm^2, Millipore, MA, USA) in 24-well plastic plates. The media in the culture plates were changed every other day for the first week after seeding and were replaced daily afterward. […] The cells were used for the transport experiments 21–28 (Caco-2) or 5–7 (MDCK and MDCK-MRP2) days after seeding, and only monolayers with a TEER-value above 420 Ω cm^2 were used during the studies.
(§2) The apical (AP) and basolateral (BL) sides are typical of polarized Caco-2, MDCK and MDCK-MRP2 epithelial cells. Before the experiments, the polarized cell monolayers were washed twice with warm HBSS solution and subsequently preincubated (37°C, 30 min). Afterward, HBSS solution on both sides of the cell monolayers was removed using a mini desktop vacuum pump. […] The final DMSO concentration in the HBSS or drug mixture was below 0.5%. The monolayers were incubated at 37°C, and 100 μL samples were taken at 30, 60, 90, and 120 min from the acceptor compartment and immediately replaced with the same volume of prewarmed fresh blank HBSS. TEER measurements for assessing the membrane integrity took place before and after the experiments.
(§3) The apparent permeability coefficients (Papp) and ER were calculated as Equations (2) and (3): […]
(§4) where dQ/dt is the steady-state flux, A is the membrane surface area, and C0 is the initial drug concentration in the donor compartment. PappBA is the Papp-value measured in BL to AP direction and PappAB is the Papp-value measured in AP to BL direction. It indicated the involvement of an active transport process when the ER-value is above 1.5 (Hubatsch et al., [2007]).

MDCK cell monolayers = assay: as above; format: in vitro ADME, canine; settings: 2 μM
Procedure: as §1, §2, §3, §4

MRP2 [2] = assay: as above; format: in vitro ADME, canine; settings: dog; for efflux ratio at 120 min, 2 μM: read-out: ER
Procedure: as §1, §2, §3, §4

Na+/K+-ATPase = assay: as above; format: in vitro ADME, canine; settings: dog, with sodium vanadate 0.05 mM (50 μM), + Sodium vanadate 0.05 mM (Na^+)
Procedure: as §1, §2, §3, §4

OCTs/OCTNs = assay: as above; format: in vitro ADME, canine; settings: dog, with TEA 5 mM, + TEA 5 mM (OCTs/OCTNs)
Procedure: as §1, §2, §3, §4

[3] = system: MDCK-MRP2 cell monolayers; assay: Bidirectional transport in MDCK-MRP2 cell monolayers with MRP2 inhibitors; format: in vitro ADME, canine; settings: MDCK-MRP2, 2 μM
Procedure: as §1, §2, §3, §4

MRP2 [4] = assay: as above; format: in vitro ADME, canine; settings: dog, MDCK-MRP2, 2 μM; for efflux ratio at 120 min, 2 μM: read-out: ER
Procedure: as §1, §2, §3, §4

MRP2 [5] = assay: Western blot analysis of MRP2 protein expression in Caco-2 cells; format: cell-based, human
Procedure: The Caco-2 cells were seeded into 6-well plates at a density of 1 × 10^5 cells/mL and cultured for 24 h. […] Protein lysate was collected by centrifugation at 12,000 rpm at 4°C for 10 min, and the total protein content was determined using BCA protein assay kit. Proteins were then mixed with a quarter volume of loading buffer and heated at 100°C for 5 min. Approximately 20 μg of the total protein content was separated by SDS-PAGE through an 8% acrylamide gel and transferred to PVDF membranes. After washing with PBST, the membrane was blocked with 5% fat-free milk in PBST for 1 h at room temperature (RT) and then incubated with anti-MRP2 (1:500) and anti-GAPDH (1:5,000) overnight at 4°C. Afterwards, the membranes were rinsed with PBST and incubated with HRP-conjugated anti-rabbit (1:5,000) secondary antibody for 2 h at RT. After complete washing with PBST, the protein bands were visualized with ECL prime kit (GE Healthcare, NA, UK).

[6] = rats, oral total alkaloid extracts from P. harmala 140 mg/kg; ref Zhang, 2013; Shi et al., 2014; cited from earlier work
[7] = Metabolic stability in human liver microsomes; settings: for residual percentage: human liver microsomes 0.5 mg protein/mL, 2 μM, after incubation; for half-life at 2 μM / microsomal CLint at 2 μM: human, liver microsomes
[8] = + Sodium vanadate 0.05 mM (Na^+)
[9] = Control (no inhibitor or substrate)
[10] = with MK571 0.05 mM (50 μM), + MK571 0.05 mM (MRP2)
[11] = with probenecid 0.2 mM (200 μM), + Probenecid 0.2 mM (MRP2)

## COc1ccc2c3c([nH]c2c1)C(C)=NCC3 [Harmaline]
[1]; read-out: ER
  efflux ratio at 120 min, 2 μM: 1.4
MDCK cell monolayers; + Apigenin 0.025 mM (BCRP)
  Modulatory effect: −
  PappAB: 20.44 ± 2.19 1 × 10^−6 cm/s
MDCK cell monolayers; + Cimetidine 0.05 mM (OATs)
  Modulatory effect: −
MDCK cell monolayers; + ES 0.05 mM (OATPs)
  Modulatory effect: −
  PappBA: 20.89 ± 0.79 1 × 10^−6 cm/s
MDCK cell monolayers; + Gly-Sar 10 mM (PEPT1)
  Modulatory effect: −
MDCK cell monolayers; + Ko143 0.01 mM (BCRP)
  Modulatory effect: −
  PappAB: 20.08 ± 0.41 1 × 10^−6 cm/s
  PappBA: 23.37 ± 0.73 1 × 10^−6 cm/s
MDCK cell monolayers; + MK571 0.05 mM (MRP2)
  Modulatory effect: −
  PappAB: 19.66 ± 0.65 1 × 10^−6 cm/s
  PappBA: 22.57 ± 0.14 1 × 10^−6 cm/s
MDCK cell monolayers; + NaN3 10 mM (ATP)
  Modulatory effect: +
  PappAB: 16.22 ± 0.84^* 1 × 10^−6 cm/s
  PappBA: 22.78 ± 1.65 1 × 10^−6 cm/s
MDCK cell monolayers; + Phloretin 0.3 mM (MCTs)
  Modulatory effect: −
  PappAB: 20.34 ± 0.71 1 × 10^−6 cm/s
MDCK cell monolayers; + Phloridzin 0.5 mM (SGLT1)
  PappAB: 15.96 ± 0.96^* 1 × 10^−6 cm/s
  PappBA: 20.59 ± 1.19 1 × 10^−6 cm/s
MDCK cell monolayers; + Probenecid 0.2 mM (MRP2)
  Modulatory effect: −
  PappAB: 21.01 ± 2.16 1 × 10^−6 cm/s
  PappBA: 21.86 ± 1.21 1 × 10^−6 cm/s
MDCK cell monolayers; + Quinidine 0.1 mM (MDR1)
  Modulatory effect: −
MDCK cell monolayers; [8]
  Modulatory effect: +
MDCK cell monolayers; + TEA 5 mM (OCTs/OCTNs)
  Modulatory effect: +
MDCK cell monolayers; + Verapamil 0.1 mM (MDR1)
  Modulatory effect: −
  PappAB: 20.96 ± 1.30 1 × 10^−6 cm/s
MDCK cell monolayers; [9]
  PappAB: 20.36 ± 1.82 1 × 10^−6 cm/s
  PappBA: 21.03 ± 2.11 1 × 10^−6 cm/s
MRP2 [2]; [10]
  efflux ratio at 120 min, 2 μM: 1.15
MRP2 [2]; [11]
  efflux ratio at 120 min, 2 μM: 1.04
Na+/K+-ATPase
  Papp A→B at 120 min, 2 μM: 16.2 ± 1.45 ×10⁻⁶ cm/s
  Papp B→A at 120 min, 2 μM: 20.4 ± 0.22 ×10⁻⁶ cm/s
Na+/K+-ATPase; read-out: ER
  efflux ratio at 120 min, 2 μM: 1.26
OCTs/OCTNs
  Papp A→B at 120 min, 2 μM: 16.5 ± 1.1 ×10⁻⁶ cm/s
  Papp B→A at 120 min, 2 μM: 22.8 ± 0.29 ×10⁻⁶ cm/s
OCTs/OCTNs; read-out: ER
  efflux ratio at 120 min, 2 μM: 1.38
[3]; + MK571 0.05 mM (MRP2)
  Modulatory effect: −
[3]; + Probenecid 0.2 mM (MRP2)
  Modulatory effect: −
MRP2 [4]; [10]
  Papp A→B at 120 min, 2 μM: 31.8 ± 1.37 ×10⁻⁶ cm/s
  Papp B→A at 120 min, 2 μM: 40.9 ± 5.48 ×10⁻⁶ cm/s
  efflux ratio at 120 min, 2 μM: 1.34
MRP2 [4]; [11]
  Papp A→B at 120 min, 2 μM: 32.9 ± 2.23 ×10⁻⁶ cm/s
  Papp B→A at 120 min, 2 μM: 41.9 ± 5.58 ×10⁻⁶ cm/s
  efflux ratio at 120 min, 2 μM: 1.28
MRP2 [4]; Control (no inhibitor)
  Papp A→B at 120 min, 2 μM: 24.3 ± 2.72 ×10⁻⁶ cm/s
  Papp B→A at 120 min, 2 μM: 32.4 ± 3.81 ×10⁻⁶ cm/s
  efflux ratio at 120 min, 2 μM: 1.33
MRP2 [5]; 48 h, 1, 2, and 5 μM
  effect on the expression of MRP2: no effect
[6]
  F-value (absolute bioavailability): 63.22%
[7]
  residual percentage: 64.16%
  half-life at 2 μM: 2.46 h
  microsomal CLint at 2 μM: 9.4 µL/min/mg

## COc1ccc2c(c1)[nH]c1c(C)nccc12 [Harmine]
[1]
  Papp A→B at 120 min, 2 μM: 4.02 ± 0.18 ×10⁻⁶ cm/s
  Papp B→A at 120 min, 2 μM: 5.94 ± 0.63 ×10⁻⁶ cm/s
MDCK cell monolayers; + Apigenin 0.025 mM (BCRP)
  Modulatory effect: −
  PappAB: 4.48 ± 0.24 1 × 10^−6 cm/s
MDCK cell monolayers; + Cimetidine 0.05 mM (OATs)
  Modulatory effect: −
  PappBA: 7.43 ± 0.62 1 × 10^−6 cm/s
MDCK cell monolayers; + ES 0.05 mM (OATPs)
  Modulatory effect: −
  PappAB: 4.59 ± 0.22 1 × 10^−6 cm/s
  PappBA: 7.17 ± 0.68 1 × 10^−6 cm/s
MDCK cell monolayers; + Gly-Sar 10 mM (PEPT1)
  Modulatory effect: −
  PappAB: 4.59 ± 0.12 1 × 10^−6 cm/s
  PappBA: 7.50 ± 0.34 1 × 10^−6 cm/s
MDCK cell monolayers; + Ko143 0.01 mM (BCRP)
  Modulatory effect: −
  PappAB: 4.50 ± 0.48 1 × 10^−6 cm/s
MDCK cell monolayers; + MK571 0.05 mM (MRP2)
  Modulatory effect: +
MDCK cell monolayers; + NaN3 10 mM (ATP)
  Modulatory effect: +
MDCK cell monolayers; + Phloretin 0.3 mM (MCTs)
  Modulatory effect: −
  PappAB: 4.51 ± 0.16 1 × 10^−6 cm/s
  PappBA: 7.47 ± 0.27 1 × 10^−6 cm/s
MDCK cell monolayers; + Phloridzin 0.5 mM (SGLT1)
  Modulatory effect: +
  PappAB: 3.89 ± 0.36^* 1 × 10^−6 cm/s
MDCK cell monolayers; + Probenecid 0.2 mM (MRP2)
  Modulatory effect: +
  PappBA: 7.24 ± 0.27 1 × 10^−6 cm/s
MDCK cell monolayers; + Quinidine 0.1 mM (MDR1)
  Modulatory effect: −
MDCK cell monolayers; [8]
  Modulatory effect: +
MDCK cell monolayers; + TEA 5 mM (OCTs/OCTNs)
  Modulatory effect: +
MDCK cell monolayers; + Verapamil 0.1 mM (MDR1)
  Modulatory effect: −
  PappAB: 4.59 ± 1.34 1 × 10^−6 cm/s
MDCK cell monolayers; [9]
  PappAB: 4.60 ± 0.25 1 × 10^−6 cm/s
  PappBA: 7.32 ± 0.19 1 × 10^−6 cm/s
MRP2 [2]; [10]
  Papp A→B at 120 min, 2 μM: 5.14 ± 0.1 ×10⁻⁶ cm/s
  Papp B→A at 120 min, 2 μM: 6.67 ± 0.37 ×10⁻⁶ cm/s
MRP2 [2]; [11]
  Papp A→B at 120 min, 2 μM: 5.21 ± 0.26 ×10⁻⁶ cm/s
Na+/K+-ATPase
  Papp A→B at 120 min, 2 μM: 3.87 ± 0.27 ×10⁻⁶ cm/s
  Papp B→A at 120 min, 2 μM: 5.22 ± 0.97 ×10⁻⁶ cm/s
OCTs/OCTNs
  Papp A→B at 120 min, 2 μM: 4.15 ± 0.1 ×10⁻⁶ cm/s
  Papp B→A at 120 min, 2 μM: 6.96 ± 0.24 ×10⁻⁶ cm/s
[3]; + MK571 0.05 mM (MRP2)
  Modulatory effect: +
[3]; + Probenecid 0.2 mM (MRP2)
  Modulatory effect: +
MRP2 [4]; [10]
  Papp A→B at 120 min, 2 μM: 20.8 ± 1.49 ×10⁻⁶ cm/s
  Papp B→A at 120 min, 2 μM: 11.8 ± 1.25 ×10⁻⁶ cm/s
MRP2 [4]; [11]
  Papp A→B at 120 min, 2 μM: 10.1 ± 1.69 ×10⁻⁶ cm/s
  Papp B→A at 120 min, 2 μM: 8.62 ± 1.05 ×10⁻⁶ cm/s
MRP2 [4]; Control (no inhibitor)
  Papp A→B at 120 min, 2 μM: 3.55 ± 0.4 ×10⁻⁶ cm/s
  Papp B→A at 120 min, 2 μM: 8.18 ± 0.98 ×10⁻⁶ cm/s
MRP2 [5]; 48 h, 2 and 5 μM, compared with the control group
  effect on the expression of MRP2: slightly up-regulate
[6]
  F-value (absolute bioavailability): 4.96%
[7]
  residual percentage: 54.25%
  half-life at 2 μM: 1.65 h
  microsomal CLint at 2 μM: 14 µL/min/mg
